Data published in patent US8114991B2, “Amino-1,3,5-triazines N-substituted with chiral bicyclic radicals, process for their preparation, compositions thereof, and their use as herbicides and plant growth regulators” (Bayer Cropscience AG, priority 2003, dated 2012).

Legend:
[1] = test system: harmful plants such as Stellaria media, Lolium multiforum, Amaranthus retroflexus, Sinapis alba, Avena sativa and Setaria viridis; assay: Pre-emergence effect on weeds (greenhouse pot test); format: in vivo; conditions: application rate of 1 kg or less of active ingredient per hectare; scored after 3 to 4 weeks by comparison with untreated controls
Summary of the method: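 Seeds or rhizome pieces sown in sandy loam; test compounds (wettable powder or emulsion concentrate) applied pre-emergence to soil surface as aqueous suspension/emulsion at various dosages, 600 to 800 l water/ha. Greenhouse; plant/emergence damage scored visually after 3 to 4 weeks versus untreated controls.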

[2] = test system: harmful plants such as Sinapis alba, Echinochloa crus-galli, Lolium multiflorum, Stellaria media, Cyperus iria, Amaranthus retroflexus, Setaria viridis, Avena …; assay: Post-emergence effect on weeds (greenhouse pot test); format: in vivo; conditions: application rate of 2 kg or less of active ingredient per hectare; treated in the three-leaf stage; scored after approx. 3 to 4 weeks by comparison with untreated controls

Row | Structure (SMILES) | pre-emergence control of harmful plants (plant or emergence damage scored visually) [1] | herbicidal post-emergence activity against harmful plants (scored visually) [2]
1 | Cc1cc2c(cc1C)[C@H](Nc1nc(N)nc(C(C)(C)F)n1)CC2 [Compound 8.201] | very good pre-emergence control | very good herbicidal post-emergence activity
2 | CC(C)(F)c1nc(N)nc(N[C@@H]2CCCc3ccccc32)n1 [Compound 8.205] | very good pre-emergence control | very good herbicidal post-emergence activity
3 | Cc1ccc2c(c1)[C@H](Nc1nc(N)nc(C(C)(C)F)n1)CCC2 [Compound 8.206] | very good pre-emergence control | very good herbicidal post-emergence activity
4 | Cc1cc(C)c2c(c1)[C@H](Nc1nc(N)nc(C(C)(C)F)n1)CCC2 [Compound 8.209] | very good pre-emergence control | very good herbicidal post-emergence activity
5 | Cc1ccc2c(c1)[C@H](Nc1nc(N)nc(C(C)(C)F)n1)CCO2 [Compound 8.215] | very good pre-emergence control | very good herbicidal post-emergence activity
6 | Cc1ccc2c(c1)[C@H](Nc1nc(N)nc(C(C)(C)Cl)n1)CC2 [Compound 8.219] | very good pre-emergence control | very good herbicidal post-emergence activity
7 | CCCc1nc(N)nc(N[C@@H]2CCOc3ccc(C)cc32)n1 [Compound 8.231] | very good pre-emergence control | very good herbicidal post-emergence activity
8 | COCc1nc(N)nc(N[C@@H]2CCc3ccccc32)n1 [Compound 8.233] | very good pre-emergence control | very good herbicidal post-emergence activity
9 | COCc1nc(N)nc(N[C@@H]2CCCc3ccccc32)n1 [Compound 8.234] | very good pre-emergence control | very good herbicidal post-emergence activity
10 | CC(C)(F)c1nc(N)nc(N[C@@H]2CCOc3c(F)cccc32)n1 [Compound 8.237] | very good pre-emergence control | very good herbicidal post-emergence activity
11 | Cc1nc(N)nc(N[C@@H]2CCOc3c(F)cccc32)n1 [Compound 8.238] | very good pre-emergence control | very good herbicidal post-emergence activity
12 | CCc1nc(N)nc(N[C@@H]2CCOc3c(F)cccc32)n1 [Compound 8.239] | very good pre-emergence control | very good herbicidal post-emergence activity
13 | CCCc1nc(N)nc(N[C@@H]2CCOc3c(F)cccc32)n1 [Compound 8.240] | very good pre-emergence control | very good herbicidal post-emergence activity
14 | Cc1ccc2c(c1C)OCC[C@H]2Nc1nc(N)nc(C(C)(C)F)n1 [Compound 8.241] | very good pre-emergence control | very good herbicidal post-emergence activity
15 | CCc1nc(N)nc(N[C@@H]2CCOc3c2ccc(C)c3C)n1 [Compound 8.242] | very good pre-emergence control | very good herbicidal post-emergence activity
16 | COc1ccc2c(c1)[C@H](Nc1nc(N)nc(C(C)(C)F)n1)CC2 [Compound 8.243] | very good pre-emergence control | very good herbicidal post-emergence activity
17 | CCc1nc(N)nc(N[C@@H]2CCc3ccc(OC)cc32)n1 [Compound 8.244] | very good pre-emergence control | very good herbicidal post-emergence activity
18 | CCc1ccc2c(c1)[C@H](Nc1nc(N)nc(C(C)(C)F)n1)CC2 [Compound 8.245] | very good pre-emergence control | very good herbicidal post-emergence activity
19 | CCc1ccc2c(c1)[C@H](Nc1nc(C)nc(N)n1)CC2 [Compound 8.246] | very good pre-emergence control | very good herbicidal post-emergence activity
20 | CCc1ccc2c(c1)[C@H](Nc1nc(N)nc(C(C)C)n1)CC2 [Compound 8.247] | very good pre-emergence control | very good herbicidal post-emergence activity
21 | CCc1ccc2c(c1)[C@H](Nc1nc(N)nc(CC)n1)CC2 [Compound 8.248] | very good pre-emergence control | very good herbicidal post-emergence activity
22 | CCCc1nc(N)nc(N[C@@H]2CCc3ccc(CC)cc32)n1 [Compound 8.249] | very good pre-emergence control | very good herbicidal post-emergence activity
23 | CCc1ccc2c(c1)[C@H](Nc1nc(N)nc(CCSC(F)(F)F)n1)CC2 [Compound 8.250] | very good pre-emergence control | very good herbicidal post-emergence activity
24 | Cc1ccc2c(c1)[C@H](Nc1nc(N)nc(CCSC(F)(F)F)n1)CCC2 [Compound 8.251] | very good pre-emergence control | very good herbicidal post-emergence activity
25 | Cc1cc(C)c2c(c1)[C@H](Nc1nc(N)nc(C(C)C)n1)CCC2 [Compound 8.252] | very good pre-emergence control | very good herbicidal post-emergence activity
